# Bridge positions count the residues as written; N and C are the ends. Square brackets hold non-standard residues; d marks the D form. Peptide text beside a SMILES is read from it. AEEA = NCCOCCOCC(=O)O
# Assays:
# [1] = target: T1, mTEAD4 (Mus musculus, UniProt Q62296); test: SPR binding to immobilised mTEAD4; details: mTEAD4 amine-coupled on CM5, multi-cycle, steady-state fit 1:1 model, 10 mM HEPES 150 mM NaCl 0.05% Tween-20 pH 7.4, 0.3% DMSO, 20 °C, Fig. 1 values n = 1 replicate
# T1 construct: Mouse TEAD4(210–427) cDNA fused with a 6x His-tag and a 3C protease cleavage site; 6x His-tag; 3C protease cleavage site; made in house; host or cells: E. coli BL21 DE3 RIL(K+)
# Summary of the method: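 Proteins amine-coupled (NHS/EDC) to CM5 chips from 10 mM MES pH 6.4; running buffer 10 mM HEPES, 150 mM NaCl, 0.05% Tween-20, pH 7.4, 20 °C, 30 µL min^−1. Multi-cycle kinetics: seven threefold analyte dilutions from 30 µM, 45 s contact, 6-min dissociation, reference-surface subtracted.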
# [2] = target: T2, GST-hTEAD1 (Homo sapiens, UniProt P28347); test: SPR binding to immobilised GST-hTEAD1; details: GST-hTEAD1 amine-coupled on CM5, multi-cycle, steady-state fit 1:1 model, 10 mM HEPES 150 mM NaCl 0.05% Tween-20 pH 7.4, 0.3% DMSO, 20 °C, Fig. 1 values n = 1 replicate
# T2 construct: CDNA of hTEAD1(209–426) fused with an N-terminal GST tag; made in house; host or cells: Escherichia coli BL21 DE3 RIL(K+)
# Procedure: Sensor chips Series S CM5 (Research grade) were obtained from GE Healthcare. Prior to use, the sensor chips were equilibrated at room temperature for 15 min to prevent water condensation on the detector side of the sensor chip surface. A running buffer was prepared composed of 10 mM HEPES, 150 mM NaCl, and 0.05% (w/v) Tween-20, pH 7.4, and the system was equilibrated at 20 °C using a flow rate of 30 µL min^−1 after docking of the sensor chip. Ligand binding experiments have been performed applying the concept of multi-cycle kinetics. A contact time of 45 s was selected, followed by a 6-min dissociation phase to allow for complete dissociation of the analyte prior to the next cycle. […] Typically, seven concentrations of the analytes have been examined applying a threefold dilution pattern with 30 µM as top concentration. For the analysis, five running buffer blanks were injected to equilibrate the instrument. […] The carboxyl-dextran surface was activated for 7 min with 0.05 M NHS and 0.2 M EDC, followed by an injection of the proteins in 10 mM MES pH 6.4 at a concentration of 30–50 µg mL^−1. […] This was followed by a deactivation of the residual esters by injecting a solution of 0.5 M ethanolamine pH 8.0 for 7 min before engaging in ligand binding experiments. Reference surfaces were prepared accordingly, omitting the injection of protein over the activated reference surface.
# [3] = target: T3, GST-hTEAD1 / biotin-VGL4 (Homo sapiens, UniProt P28347); test: Competition pull-down of GST-hTEAD1 with immobilised biotin-VGL4; format: biochemical; details: GST-hTEAD1 1 µM; for Competition with TEAD–VGL4 complex formation (pull-down): peptide 50 and 200 µM, biotin-VGL4 on streptavidin beads, 2.5 h, SDS-PAGE, n = 1
# T3 construct: CDNA of hTEAD1(209–426) fused with an N-terminal GST tag; made in house; host or cells: Escherichia coli BL21 DE3 RIL(K+); bait peptide synthetic
# Procedure: Beads were then extensively washed with the incubation buffer followed by protein elution after boiling the beads at 95 °C for 10 min in 25 µL of SDS loading buffer. SDS PAGE was performed using standard methods and the gel was visualized after Coomassie staining with a Li-COR Fc Imager.
# [4] = system: YAP–TEAD interaction; test: Proximity ligation assay (PLA) in RKO cells; format: cell-based; details: 24 h incubation, c = 30 µM
# Procedure: Ca. 5000 RKO cells were seeded per well in black 96-well plates with glass bottom (#5241-20, MoBiTec) and treated with the peptides or DMSO as vehicle control. After 24 h, the cells were fixed for 10 min using 4% paraformaldehyde (#UN2209, AppliChem) in PBS prior to permeabilization with 0.1% Triton X-100 (#39795.02, Serva) in PBS for 10 min. […] The cells were treated with the corresponding PLA probes (donkey anti-rabbit PLUS, #DUO92002, dilution 1:5; donkey anti-mouse MINUS, #DUO92004, dilution 1:5, Sigma-Aldrich) and with the Duolink In Situ Detection Orange Kit (#DUO92007, Sigma-Aldrich) for ligation and amplification according to the manufacturer's instructions. Finally, the cells were treated with 1 μg mL^-1 DAPI (#D9542, Sigma-Aldrich) to stain nuclei for further microscopy analysis. Images were acquired using a Zeiss Observer Z1 microscope with an 63× oil objective. Picture data were analysed by the ImageJ “analyze particles” macro to count PLA spots per cell. Ten pictures were counted for each condition per experiment. Statistical analysis was performed using Student's paired t test.
# [5] = system: RKO cells; test: Wound closure assay; format: cell-based; details: for Effect on wound closure: c = 30 µM, 48 h treatment
# Procedure: Ca. 100,000 RKO cells were seeded per well in a transparent ImageLock 96-well plate (#4379, Essen Bioscience) and treated with the samples the next day. Wound Healing Assay was performed using the IncuCyte® ZOOM system and the WoundMaker™ device (both Essen Bioscience). The scratch was performed according to manufacturer’s protocol and images were acquired every 2 h. Image-based analysis of wound closure was conducted using the IncuCyte ZOOM 2016B software (Essen Bioscience). Confluency within the wound area was normalized to the confluency at the time of scratch preparation and plotted using GraphPad Prism 6.
# [6] = system: primary juvenile (P5–P6) rat cardiomyocytes; test: Cell cycle activity assay (Ki67/αActinin) in juvenile rat cardiomyocytes; format: cell-based; details: for Effect on cardiomyocyte cell cycle activity: P5–P6 rat heart cells, 4-days incubation, Ki67/αActinin double-positive cells; for Cell cycle activity, MEAN: c = 10 µM, 4 days, relative to DMSO-treated cells (100), mean of N = 6; for Dose-dependent cell cycle stimulation, MEAN: 4-day treatment, relative to DMSO (100), mean of n = 3
# Procedure: One day after seeding, the cells were treated with test compounds of interest. Treatments were applied with an ECHO 520 acoustic dispenser (Labcyte) and medium was added to the wells. Four days after treatment, the cells were fixed with 4% formaldehyde (Roth) and immunostained in 0.2% Triton-X100 (Roth) in PBS (Gibco) supplemented with 5% FBS. […] Samples were then imaged and analysed on an ImageXpress XL automated microscope (Molecular Devices). Data are depicted as means ± SEM.
# [7] = system: RKO cells; test: Total drug content in RKO cells by UPLC-MS; details: for Total drug content, Measured Concentration: RIPA total lysis, diluted lysate
# Procedure: Peptides were incubated in RKO cells (ATCC, #CRL-2577) as follows: Experiment 1: RKO cells were incubated in 25 µM compound for 90 min and 24 h. Experiment 2: RKO cells were incubated in 25 µM for 30 min or 72 h. Following peptide incubation, the cells were washed twice with PBS, trypsinized and pelleted. The pellets were lysed in RIPA buffer (Perkin Elmer) for total lysis, or CelLytic NuCLEAR Extraction Kit (SIGMA) for subcellular fractionation. Total protein quantification BCA (Pierce) was performed prior to MS analysis to normalize sample data. Total and fractionated cell lysates were analysed by quantitative UPLC-MS utilizing a Waters Xevo TQ-XS (WBA0259) and an Acquity UPLC system from Waters consisting of Sample Manager (M16UFL953M), Acquity PDA (F17UPD457A), Column Oven (E17CMP703G) and Binary Solvent Manager (E17BUR621G). […] Chromatograms of the samples were treated similarly, and by linear regression (1/x) an in-cell concentration was established in the re-suspended cell lysate using the Waters MassLynx TargetLynx^TM product.
# [8] = 25 µM compound, 24 hours, UPLC-MS, n = 2
# [9] = 25 µM compound, 24 hours, total lysis, UPLC-MS, n = 2
# [10] = total drug content, 25 µM compound, 90 minutes, mean of 2 replicates
# T3 sequence (P28347 209-426): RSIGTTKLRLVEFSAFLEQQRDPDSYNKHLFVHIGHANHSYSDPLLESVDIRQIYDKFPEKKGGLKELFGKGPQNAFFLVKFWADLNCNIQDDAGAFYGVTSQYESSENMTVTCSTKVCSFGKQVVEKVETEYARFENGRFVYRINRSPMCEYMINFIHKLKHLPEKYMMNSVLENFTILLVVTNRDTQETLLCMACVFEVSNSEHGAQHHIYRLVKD
# T1 sequence (Q62296 210-427): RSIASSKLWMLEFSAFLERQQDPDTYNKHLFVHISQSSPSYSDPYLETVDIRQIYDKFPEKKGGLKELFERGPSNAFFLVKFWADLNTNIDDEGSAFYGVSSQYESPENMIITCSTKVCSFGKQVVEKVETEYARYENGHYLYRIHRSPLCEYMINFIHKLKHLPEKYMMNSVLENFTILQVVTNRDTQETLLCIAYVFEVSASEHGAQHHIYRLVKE
# T2 sequence (P28347 209-426): as the sequence (P28347 209-426) above
compound,measurement,setting,value
CC[C@H](C)[C@@H]1NC(=O)[C@H](CCC(N)=O)NC(=O)[C@H](CC(C)C)NC(=O)[C@H](Cc2c[nH]c3ccccc23)NC(=O)[C@H]([C@@H](C)O)NC(=O)[C@H](CC(=O)O)NC(=O)CNC(=O)[C@H](CC(C)C)NC(=O)[C@H](C)NC(=O)[C@H](CCCCN)NC(=O)[C@H](C)NC(=O)[C@H](Cc2ccccc2)NC(=O)[C@H](Cc2c[nH]cn2)NC(=O)[C@H](CC(=O)O)NC(=O)[C@@H](NC(=O)[C@@H](NC(=O)[C@H](CO)NC(C)=O)C(C)C)CCC(=O)NCCCC[C@@H](C(=O)N[C@@H](C)C(=O)N[C@@H](C)C(N)=O)NC1=O [4E] (Ac-SVEDHFAKALGDTWLQIKAA-NH2; lactam 3-18),Kd,[1],1200 nM
same,Kd,[2],700 nM
same,Competition with TEAD–VGL4 complex formation (pull-down),[3],compete with TEAD–VGL4 complex formation
same,Effect on YAP–TEAD complexes (PLA),[4],only shows a small change in PLA events
same,Effect on wound closure,[5],no effect
same,Effect on cardiomyocyte cell cycle activity,[6],has no effect
same,"Cell cycle activity, MEAN",[6],92.7542
same,"Total drug content, Measured Concentration",[7]; [8],< LLOQ
same,"Total drug content, nMol",[7]; [9],< LLOQ
same,"Total drug content, pMol.mg-1","[7]; 25 µM compound, 24 hours, total lysis, UPLC-MS, normalised to BCA protein, n = 2",< LLOQ
same,"pMol/mg of protein, Mean",[7]; [10],424.4 pMol/mg of protein
CC[C@H](C)[C@@H]1NC(=O)[C@H](CCC(N)=O)NC(=O)[C@H](CC(C)C)NC(=O)[C@H](Cc2c[nH]c3ccccc23)NC(=O)[C@H]([C@@H](C)O)NC(=O)[C@H](CC(=O)O)NC(=O)CNC(=O)[C@H](CC(C)C)NC(=O)[C@H](C)NC(=O)[C@H](CCCCN)NC(=O)[C@H](C)NC(=O)[C@H](Cc2ccccc2)NC(=O)[C@H](Cc2c[nH]cn2)NC(=O)[C@H](CC(=O)O)NC(=O)[C@@H](NC(=O)[C@@H](NC(=O)[C@H](CO)NC(=O)COCCOCCNC(=O)[C@H](CCC(N)=O)NC(=O)[C@@H]2CCCN2C(=O)[C@H](CCCNC(=N)N)NC(=O)[C@H](CCCNC(=N)N)NC(=O)[C@H](CCCNC(=N)N)NC(=O)[C@H](CCC(N)=O)NC(=O)[C@H](CCCNC(=N)N)NC(=O)[C@H](CCCNC(=N)N)NC(=O)[C@H](CCCCN)NC(=O)[C@H](CCCCN)NC(=O)[C@H](CCCNC(=N)N)NC(=O)CNC(C)=O)C(C)C)CCC(=O)NCCCC[C@@H](C(=O)N[C@@H](C)C(=O)N[C@@H](C)C(N)=O)NC1=O [compound 7] (Ac-GRKKRRQRRRPQ[AEEA]SVEDHFAKALGDTWLQIKAA-NH2; lactam 16-31),Kd,[1],1500 ± 1000 nM
same,Kd,[2],830 ± 780 nM
same,required concentration for VGL4 competition in the pull-down assay,"[3]; immobilised biotin-VGL4, 2.5 h",ca. 100 µM
same,Competition with TEAD–VGL4 complex formation (pull-down),[3],compete with TEAD–VGL4 complex formation
same,Effect on YAP–TEAD complexes (PLA),[4],an increase in YAP–TEAD complexes
same,Effect on wound closure,[5],considerably increased wound closure
same,Wound closure (%),"[5]; dose-dependent, 1 µM peptide 7, mean of n = 3",53.07%
same,Wound closure (%),"[5]; dose-dependent, 5 µM peptide 7, mean of n = 3",61.51%
same,Wound closure (%),"[5]; dose-dependent, 10 µM peptide 7, mean of n = 3",67.72%
same,Wound closure (%),"[5]; dose-dependent, 30 µM peptide 7, mean of n = 3",76.06%
same,Wound closure (%),"[5]; time-dependent, 12 hours, mean of n = 3",26.59%
same,Wound closure (%),"[5]; time-dependent, 24 hours, mean of n = 3",49.56%
same,Wound closure (%),"[5]; time-dependent, 36 hours, mean of n = 3",65.47%
same,Wound closure (%),"[5]; time-dependent, 48 hours, mean of n = 3",75.27%
same,"Dose-dependent cell cycle stimulation, MEAN",[6]; 1 mM (so in the source),106.813
same,"Dose-dependent cell cycle stimulation, MEAN",[6]; 5 mM (so in the source),131.729
same,"Dose-dependent cell cycle stimulation, MEAN",[6]; 10 mM (so in the source),172.672
same,Effect on cardiomyocyte cell cycle activity,[6],stimulates cell cycle activity to the same extent as positive controls
same,"Cell cycle activity, MEAN",[6],148.037
same,"Total drug content, Measured Concentration","[7]; 25 µM compound, 90 minutes, UPLC-MS, n = 2",122.09 ± 7.277 nM
same,Total drug content,"[7]; 25 µM compound, 90 minutes, total lysis, UPLC-MS, n = 2",0.1831 ± 0.01091 nmol
same,"Total drug content, Measured Concentration",[7]; [8],91.646 ± 61.816 nM
same,Total drug content,[7]; [9],0.1375 ± 0.09272 nmol
same,loss of total concentration between 90 min and 24 h incubation,"[7]; 25 µM, authors' response in peer review file",30%
same,Measured Conc,"[7]; total drug content, 25 µM compound, 90 minutes, UPLC-MS, dilution factor 10, replicate 1",114.813 nM
same,Measured Conc,"[7]; total drug content, 25 µM compound, 90 minutes, UPLC-MS, dilution factor 10, replicate 2",129.367 nM
same,"pMol/mg of protein, Mean",[7]; [10],183.0 pMol/mg of protein
same,Measured Conc,"[7]; total drug content, 25 µM compound, 24 hours, UPLC-MS, dilution factor 10, replicate 1",153.462 nM
same,Measured Conc,"[7]; total drug content, 25 µM compound, 24 hours, UPLC-MS, dilution factor 10, replicate 2",29.83 nM
same,"pMol/mg, Mean","[7]; total drug content, 25 µM compound, 24 hours, mean of 2 replicates",127.1 pMol/mg
